Assay results reported in US6492407B2, “Pharmaceutical compositions containing triazolones and methods of treating neurodegenerative disease using triazolones” (Boehringer Imgelheim Pharma KG, priority 1998, dated 2002).
Counter-ions that a name gives are not always drawn.

Tests used:
AMPA receptor = test: Inhibition of the cainate-induced signal at the AMPA receptor, electrophysiology on neuronal cells (patch-clamp method); assay type: cell-based; conditions: test concentration of 100 μM
Description: The testing was carried out at a test concentration of 100 μM.

[1] = biological target: Na+ channel site 2 binding site; test: Affinity to the "Na+ channel site 2" binding site (method of G. B. Brown); conditions: testing typically at a test concentration of 10 μM

| SMILES | melting point | AMPA Inh. [%] (inhibition of the cainate-induced signal at the AMPA receptor) (AMPA receptor) | Ki [1] |
| --- | --- | --- | --- |
| Cn1c(-c2ccccc2)nn(-c2cccc(F)c2)c1=O [Example 42, 2-(3-fluoro-phenyl)-4-methyl-5-phenyl-3H-1,2,4-triazol-3-one] | 81 °C | 96% | – |
| COc1cccc(-n2nc(-c3ccccc3)n(C)c2=O)c1 [Example 5, 2-(3-methoxy-phenyl)-4-methyl-5-phenyl-3H-1,2,4-triazol-3-one] | 81 to 83 °C | 58% | – |
| Cn1c(-c2ccccc2)nn(-c2ccccc2Br)c1=O [Example 8, 2-(2-bromo-phenyl)-4-methyl-5-phenyl-3H-1,2,4-triazol-3-one] | 80 to 82 °C | 87% | – |
| Cc1ccccc1-n1[nH]c(-c2ccccc2)nc1=O [Example 1, 2-(2-methyl-phenyl)-5-phenyl-3H-1,2,4-triazol-3-one] | 208 to 211 °C | 58% | – |
| O=c1nc(-c2ccccc2)[nH]n1-c1ccccc1Br [Example 56, 2-(2-bromo-phenyl)-5-phenyl-3H-1,2,4-triazol-3-one] | 246 to 264 °C | 96% | – |
| Cn1c(-c2ccccc2)nn(-c2ccccc2Cl)c1=O [Example 55, 2-(2-chloro-phenyl)-4-methyl-5-phenyl-3H-1,2,4-triazol-3-one] | 94 to 96 °C | 80% | – |
| Cc1ccccc1-n1nc(-c2ccccc2)n(CCN(C)C)c1=O (as salt: HCl) [Example 27, 4-(2-N,N-dimethyl-aminoethyl)-2-(2-methyl-phenyl)-5-phenyl-3H-1,2,4-triazol-3-one] | 204 to 207 °C | – | – |
| COc1ccccc1-c1nn(-c2ccccc2)c(=O)n1C [Example 25, 5-(2-methoxy-phenyl)-4-methyl-2-phenyl-3H-1,2,4-triazol-3-one] | 117 °C | 72% | – |
| CN(C)CCn1c(-c2ccccc2)nn(-c2cccc(F)c2)c1=O (as salt: HCl) [Example 49, 2-(3-fluorophenyl)-4-(2-N,N-dimethyl-aminoethyl)-5-phenyl-3H-1,2,4-triazol-3-one] | 201 to 203 °C | – | – |
| Cn1c(-c2ccccc2)nn(-c2ccccc2F)c1=O [Example 44, 2-(2-fluoro-phenyl)-4-methyl-5-phenyl-3H-1,2,4-triazol-3-one] | 65 to 66 °C | 76% | – |
| O=c1nc(-c2ccccc2)[nH]n1-c1ccccc1F [Example 37, 2-(2-fluoro-phenyl)-5-phenyl-3H-1,2,4-triazol-3-one] | 238 to 240 °C | 86% | – |
| CN(C)CCn1c(-c2ccccc2)nn(-c2cccc(F)c2)c1=O [Example 49, 2-(3-fluorophenyl)-4-(2-N,N-dimethyl-aminoethyl)-5-phenyl-3H-1,2,4-triazol-3-one] | – | – | 6.58 µM |
| Cc1cccc(-n2nc(-c3ccccc3)n(CCN(C)C)c2=O)c1 (as salt: HCl) [Example 53, 4-(2-N,N-dimethyl-amino-ethyl)-2-(3-methyl-phenyl)-5-phenyl-3H-1,2,4-triazol-3-one] | 204 to 206 °C | – | – |
| Cc1cccc(-n2nc(-c3ccccc3)n(CCN(C)C)c2=O)c1 [Example 53, 4-(2-N,N-dimethyl-amino-ethyl)-2-(3-methyl-phenyl)-5-phenyl-3H-1,2,4-triazol-3-one] | – | – | 5.78 µM |
| Cc1ccccc1-n1nc(-c2ccccc2)n(CCN(C)C)c1=O [Example 27, 4-(2-N,N-dimethyl-aminoethyl)-2-(2-methyl-phenyl)-5-phenyl-3H-1,2,4-triazol-3-one] | – | 64% | 5.41 µM |
| O=c1nc(-c2ccccc2)[nH]n1-c1ccccc1Cl [Example 33, 2-(2-chloro-phenyl)-5-phenyl-3H-1,2,4-triazol-3-one] | 257 °C | 97% | – |
| Cc1cccc(-n2nc(-c3ccccc3)n(C)c2=O)c1 [Example 50, 4-methyl-2-(3-methyl-phenyl)-5-phenyl-3H-1,2,4-triazol-3-one] | 91 to 92 °C | 71% | – |
| COc1ccc(-c2nn(-c3ccccc3)c(=O)n2C)cc1 [Example 22, 5-(4-methoxy-phenyl)-4-methyl-2-phenyl-3H-1,2,4-triazol-3-one] | 118 °C | 50% | – |
| Cc1cccc(-n2[nH]c(-c3ccccc3)nc2=O)c1 (as salt: HCl) [Example 46, 2-(3-methyl-phenyl)-5-phenyl-3H-1,2,4-triazol-3-one] | 207 to 208 °C | – | – |
| CN(C)CCn1c(-c2ccccc2)nn(-c2cccc(Cl)c2)c1=O [Example 35, 2-(3-chloro-phenyl)-4-(2-N,N-dimethylamino-ethyl)-5-phenyl-3H-1,2,4-triazol-3-one] | – | – | 2.08 µM |
| CCc1ccccc1-n1[nH]c(-c2ccccc2)nc1=O [Example 48, 2-(2-ethyl-phenyl)-5-phenyl-3H-1,2,4-triazol-3-one] | 209 to 210 °C | 63% | – |
| COc1ccccc1-n1[nH]c(-c2ccccc2)nc1=O [Example 32, 2-(2-methoxy-phenyl)-5-phenyl-3H-1,2,4-triazol-3-one] | 275 to 277 °C | 73% | – |
| Cc1cccc(-n2[nH]c(-c3ccccc3)nc2=O)c1 [Example 46, 2-(3-methyl-phenyl)-5-phenyl-3H-1,2,4-triazol-3-one] | – | 54% | – |
